Here are results for one compound from patent US9340575B2, “Agonists and antagonists of the urotensinergic system” (INSTITUT NATIONAL DE LA RECHERCHE SCIENTIFIQUE, priority 2011, dated 2016).

This experiment deals with T1, human urotensin II receptor (UT) (Homo sapiens, UniProt Q9UKP6).
T1 construct: expressed in transfected cells; host or cells: CHO cells (CHO-UT), stably transfected, G418 selection
T1 sequence (Q9UKP6 1-389): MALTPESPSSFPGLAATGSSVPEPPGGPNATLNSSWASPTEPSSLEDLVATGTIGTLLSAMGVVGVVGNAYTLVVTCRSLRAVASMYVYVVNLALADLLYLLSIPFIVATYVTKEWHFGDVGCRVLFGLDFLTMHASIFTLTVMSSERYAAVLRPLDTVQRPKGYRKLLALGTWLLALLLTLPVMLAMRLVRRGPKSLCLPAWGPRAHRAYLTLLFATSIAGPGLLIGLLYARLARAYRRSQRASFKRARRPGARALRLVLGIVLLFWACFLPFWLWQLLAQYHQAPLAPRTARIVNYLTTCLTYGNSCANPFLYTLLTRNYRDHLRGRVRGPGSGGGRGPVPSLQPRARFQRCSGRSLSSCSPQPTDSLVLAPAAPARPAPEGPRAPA
Put plainly: Competitive radioligand binding on CHO-UT cells. The following applies: for IC50: recombinant human UT. The protocol:
Transfected CHO cells expressing the human urotensin receptor (CHO-UT) were maintained in Ham-F12 medium with 10% fetal bovine serum (FBS), 2 mM L-glutamine, 100 UI/mL each of penicillin and streptomycin, and 400 μg/mL G418. […] Binding assays were following known literature procedures using CHO cells stably transfected with hGPR14. […] After 90 min of incubation at room temperature, cells were washed, lysed, and the cell-bound radioactivity was quantified using a γ-counter. […] The cells were then washed, lysed, and the radioactivity counted on a γ-counter (1470 Automatic Gamma Counter, Perkin Elmer). Binding and functional experiments were performed at least in triplicate and data, expressed as mean±S.E.M, were analyzed using the Prism software (Graph Pad Software, San Diego, Calif.). In all experiments, n represents the total number of animals studied or individual assays performed. The EC50, pEC50, pIC50 values as well as the Emax value were determined from the concentration-response curves using a sigmoidal dose-response fit with variable slope. […] The slope is calculated from the double reciprocal plot of equiactive concentrations of agonist in the presence and absence of antagonist.

Structures are written as SMILES.

Usually IC50 stands for the concentration needed to halve the response being measured. Turning to `CC(C)[C@H](NC(=O)[C@@H]1CSSC[C@H](NC(=O)[C@H](C)N)C(=O)N[C@@H](Cc2ccccc2)C(=O)N[C@@H](Cc2ccc(-c3ccccc3)cc2)C(=O)N[C@@H](CCCCN)C(=O)N[C@@H](Cc2ccc(O)cc2)C(=O)N1)C(=O)O` [[Bip^4]URP, H-Ala-Cys-Phe-Bip-Lys-Tyr-Cys-Val-OH], the concentration for half-maximal inhibition (IC50) (Binding (125I-URP) IC50 (nM), radioligand 125I-URP) amounted to 339 nM and the concentration for half-maximal inhibition (IC50) (Binding (125I-hUII) IC50 (nM), radioligand 125I-hUII) turned out to be 386 nM. Under “CHO-UT cells”, the “Displacement of both radioligands (125I-hUII and 125I-URP)” value turned out to be 100%.
